Earlier results as cited in patent US9132083B2, “Delivery system comprising a silicon-containing material” (SISAF Ltd., priority 2009, dated 2015).

For `[Na+].[O-][Si](O)(O)O` [Na^+(OSA)^− salt], the pKa is listed as “about 6”.
